Measured values reported in patent US10959432B2, “Microbiocidal oxadiazole derivatives” (Syngenta Participations AG, priority 2016, dated 2021).

Tests used:
[1] = system: Puccinia recondita f. sp. tritici; assay: Fungicidal activity against Puccinia recondita f. sp. tritici / wheat / leaf disc curative (brown rust); format: in vivo; settings: foliar, 200 ppm in the applied formulation, wheat leaf segments cv. Kanzler, curative (applied 1 day after inoculation), assessed 6 to 8 days after application, read-out: disease control compared to untreated control leaf disks
Method in brief: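 Curative test: compound, diluted from DMSO stock into water, applied one day after spore inoculation of wheat (cv. Kanzler) leaf segments kept on agar in darkness at 19° C. and 75% RH. Climate-cabinet incubation (19° C., 75% RH, 12 h photoperiod); disease control relative to untreated read 6–8 days post-application.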

[2] = system: Puccinia recondita f. sp. tritici; assay: Fungicidal activity against Puccinia recondita f. sp. tritici / wheat / leaf disc preventative (brown rust); format: in vivo; settings: foliar, 200 ppm in the applied formulation, wheat leaf segments cv. Kanzler, preventative (inoculated 1 day after application), assessed 7 to 9 days after application, read-out: disease control compared to untreated control leaf disks
Method in brief: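 Preventative leaf-segment test: compound sprayed at 200 ppm onto wheat (cv. Kanzler) segments, brown rust spores applied 1 day after. Kept at 19C and 75% rh under 12 h light/dark cycles; disease control versus untreated check read 7 to 9 days post-application.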

[3] = system: Glomerella laqenarium (Colletotrichum lagenarium); assay: Fungicidal activity against Glomerella lagenarium (Colletotrichum lagenarium) liquid culture / cucumber / preventative (anthracnose); format: cell-based; settings: Colletotrichum orbiculare; 20 ppm in the applied formulation; liquid culture in PDB, 24° C., 3 to 4 days after application; read-out: disease control compared to untreated control (inhibition of growth measured photometrically)
Method in brief: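 Test compound, applied from DMSO solution, is combined with PDB containing conidia taken from cryogenic storage. After 3–4 days at 24 °C, growth is measured photometrically and antifungal activity expressed as percent relative to untreated control.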

[4] = system: Phakopsora pachyrhizi; assay: Fungicidal activity against Phakopsora pachyrhizi / soybean / leaf disc preventative (Asian soybean rust); format: in vivo; settings: foliar, 200 ppm in the applied formulation, soybean leaf disks, preventative (inoculated one day after application), assessed 12 to 14 days after application, read-out: disease control compared to untreated control leaf disks
Method in brief: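 Preventative test: compound applied to soybean leaf discs a day before spore inoculation of the lower surface. Discs kept at 20° C and 75% rh, first 24-36 h in darkness, then under 12 h light/day; disease control relative to untreated discs rated 12 to 14 days post-application.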

CCC(COC)NC(=O)c1ccc(-c2noc(C(F)(F)F)n2)cc1F (stereo not shown) [Compound 3b.11, 2-fluoro-N-[1-(methoxymethyl)propyl]-4-[5-(trifluoromethyl)-1,2,4-oxadiazol-3-yl]benzamide]
≥ 80%: pest or weed control at 200 ppm [1] | pest or weed control at 200 ppm [2] | inhibition at 20 ppm [3] | pest or weed control at 200 ppm [4]

CCOC(C)CNC(=O)c1ccc(-c2noc(C(F)(F)F)n2)cc1F (stereo not shown) [Compound 3b.12, N-(2-ethoxypropyl)-2-fluoro-4-[5-(trifluoromethyl)-1,2,4-oxadiazol-3-yl]benzamide]
≥ 80%: pest or weed control at 200 ppm [1] | pest or weed control at 200 ppm [2] | inhibition at 20 ppm [3] | pest or weed control at 200 ppm [4]

CC(C)CN(C)C(=O)c1ccc(-c2noc(C(F)(F)F)n2)cc1F [Compound 3b.14, 2-fluoro-N-isobutyl-N-methyl-4-[5-(trifluoromethyl)-1,2,4-oxadiazol-3-yl]benzamide]
≥ 80%: pest or weed control at 200 ppm [1] | pest or weed control at 200 ppm [2] | inhibition at 20 ppm [3] | pest or weed control at 200 ppm [4]

CC(=O)CC(C)(C)NC(=O)c1ccc(-c2noc(C(F)(F)F)n2)cc1F [Compound 3b.15, N-(1,1-dimethyl-3-oxo-butyl)-2-fluoro-4-[5-(trifluoromethyl)-1,2,4-oxadiazol-3-yl]benzamide]
≥ 80%: pest or weed control at 200 ppm [1] | pest or weed control at 200 ppm [2] | inhibition at 20 ppm [3] | pest or weed control at 200 ppm [4]

CCC(O)CNC(=O)c1ccc(-c2noc(C(F)(F)F)n2)cc1F (stereo not shown) [Compound 3b.16, 2-fluoro-N-(2-hydroxybutyl)-4-[5-(trifluoromethyl)-1,2,4-oxadiazol-3-yl]benzamide]
≥ 80%: pest or weed control at 200 ppm [1] | pest or weed control at 200 ppm [2] | inhibition at 20 ppm [3] | pest or weed control at 200 ppm [4]

COCCN(C)C(=O)c1ccc(-c2noc(C(F)(F)F)n2)cc1F [Compound 3b.19, 2-fluoro-N-(2-methoxyethyl)-N-methyl-4-[5-(trifluoromethyl)-1,2,4-oxadiazol-3-yl]benzamide]
≥ 80%: pest or weed control at 200 ppm [1] | pest or weed control at 200 ppm [2] | inhibition at 20 ppm [3] | pest or weed control at 200 ppm [4]

O=C(NCCCCCl)c1ccc(-c2noc(C(F)(F)F)n2)cc1F [Compound 3b.20, N-(4-chlorobutyl)-2-fluoro-4-[5-(trifluoromethyl)-1,2,4-oxadiazol-3-yl]benzamide]
≥ 80%: pest or weed control at 200 ppm [1] | pest or weed control at 200 ppm [2] | inhibition at 20 ppm [3] | pest or weed control at 200 ppm [4]

O=C(NCCO)c1ccc(-c2noc(C(F)(F)F)n2)cc1F [Compound 3b.21, 2-fluoro-N-(2-hydroxyethyl)-4-[5-(trifluoromethyl)-1,2,4-oxadiazol-3-yl]benzamide]
≥ 80%: pest or weed control at 200 ppm [1] | pest or weed control at 200 ppm [2] | inhibition at 20 ppm [3] | pest or weed control at 200 ppm [4]

O=C(NCCCCCO)c1ccc(-c2noc(C(F)(F)F)n2)cc1F [Compound 3b.22, 2-fluoro-N-(5-hydroxypentyl)-4-[5-(trifluoromethyl)-1,2,4-oxadiazol-3-yl]benzamide]
≥ 80%: pest or weed control at 200 ppm [1] | pest or weed control at 200 ppm [2] | inhibition at 20 ppm [3] | pest or weed control at 200 ppm [4]

CCOCCCNC(=O)c1ccc(-c2noc(C(F)(F)F)n2)cc1F [Compound 3b.24, N-(3-ethoxypropyl)-2-fluoro-4-[5-(trifluoromethyl)-1,2,4-oxadiazol-3-yl]benzamide]
≥ 80%: pest or weed control at 200 ppm [1] | pest or weed control at 200 ppm [2] | inhibition at 20 ppm [3] | pest or weed control at 200 ppm [4]
